Molecules are shown by their SMILES.

From paper PMC5722316, “Synthesis of novel purpurealidin analogs and evaluation of their effect on the cancer-relevant potassium channel KV10.1” (PLoS ONE, 2017) come the findings set out here.

For data set [1], the system named is DU145. In words: Proliferation assay (IncuCyte live-cell imaging, cell confluency). Format: cell-based. As to conditions: Homo sapiens, DU-145, indicative, from AUC vs concentration (2-100 μM), read-out: Antiproliferative effect (IC50). As to the method: (§1) Cell lines SH-SY5Y (ACC 209), DU145 (ACC 261), LNCaP (ACC 256) and NIH-3T3 (ACC 59) were purchased from DSMZ (Germany). MDA-MB-435S (HTB 129) and hTERT RPE-1 (CRL 4000) were obtained from ATCC (USA). Cell lines were cultured in their recommended media Supplemented with 10% or 15% FCS (PAA laboratories, Germany) at 37°C in humidified 5% CO2 atmosphere. All media were purchased from ThermoFisher Scientific (Waltham, Massachusetts, United States).
(§2) Cell proliferation, cytotoxicity and apoptosis were assessed in a 96-well microtiter plate by live-cell imaging using an IncuCyte Zoom System (Essen BioScience, UK). Cell proliferation was monitored in terms of cell confluency (%). Cell cytotoxicity was assessed by the CellTox Green Dye assay (Promega, Madison, Wisconsin, USA). The Incucyte Caspase-3/7 apoptosis assay (Essen BioScience, UK) was used to evaluate the effect of compound 5 on the apoptotic pathway. As negative controls media supplemented with 0.05% of DMSO were used.
(§3) Live-cell imaging data were collected from the IncuCyte Zoom software and analyzed using GraphPad Prism 5 software. Proliferation was measured as Phase Object Confluence (%), cytotoxicity and apoptosis were measured as Green Object Count (1/mm^2). All data are represented as mean S.E.M of n = 6 different wells.
(§4) The following concentrations of compound 5 were added to the different cell lines, 100 μM, 50 μM, 20 μM, 10 μM, 5 μM and 2 μM to assess its effect on cell proliferation (S1 Fig) and cytotoxicity (S2 Fig). Indicative IC50-values for the proliferation assays were obtained by plotting the areas under the curve (AUC × 10^3) against the tested compound 5 concentrations and by fitting the curve with a logistic dose-response equation. The EC50-values for the cytotoxicity assays were calculated correspondingly (S3 Fig). Although more data points would be necessary to calculate precise IC50 and EC50-values, it is clear that compound 5 inhibits the proliferation and induces cytotoxicity in all the tested cell lines in the low to middle micromolar range.

Data set [2] deals with LNCAP. Described as above. The data set is classed as cell-based. The settings on record: Homo sapiens, indicative, from AUC vs concentration (2-100 μM), read-out: Antiproliferative effect (IC50). The procedure: as §1, §2, §3, §4
The subject of data set [3] is MDA-MB-435S. The description is as above. The data set is classed as cell-based. The settings on record: Homo sapiens, indicative, from AUC vs concentration (2-100 μM), read-out: Antiproliferative effect (IC50). The procedure:
as §1, §2, §3, §4

In data set [4] the test system is NIH-3T3. The description is as above. Format: cell-based. The settings on record: Mus musculus, NIH3T3, indicative, from AUC vs concentration (2-100 μM), read-out: Antiproliferative effect (IC50). The procedure:
as §1, §2, §3, §4

In data set [5] the test system is SH-SY5Y. The description is as above. The data set is classed as cell-based. The settings on record: Homo sapiens, indicative, from AUC vs concentration (2-100 μM), read-out: Antiproliferative effect (IC50). As to the method: as §1, §2, §3, §4
Data set [6] deals with hTERT RPE-1. The description is as above. Format: cell-based. The settings on record: Homo sapiens, hTERT-RPE1, indicative, from AUC vs concentration (2-100 μM), read-out: Antiproliferative effect (IC50). The procedure: as §1, §2, §3, §4
Data set [7] relates to SH-SY5Y, DU145, LNCaP, NIH-3T3, MDA-MB-435S and hTERT RPE-1 cell lines. In words: Incucyte Caspase-3/7 apoptosis assay. The data set is classed as cell-based. The settings on record: 100 μM, 50 μM and 20 μM; all the cell lines. The procedure:
as §1, §2
Live-cell imaging data were collected from the IncuCyte Zoom software and analyzed using GraphPad Prism 5 software. Proliferation was measured as Phase Object Confluence (%), cytotoxicity and apoptosis were measured as Green Object Count (1/mm^2). All data are represented as mean S.E.M of n = 6 different wells. […]

For orientation: IC50 means the midpoint of a concentration-inhibition curve. A word on the melting point: it is the temperature of the solid-liquid transition. On to `COc1ccc(C(=O)NCCc2cc(Br)c(OCCCN(C)C)c(Br)c2)cc1Cl` [Compound 5, 3-Chloro-N-[3,5-dibromo-4-[3-(dimethylamino)propoxy]phenethyl]-4-methoxybenzamide], for which the melting point lay within 79 to 81 °C. Also, in data set [1], the IC50 was 28.9 µM. The IC50 in data set [2] is 26.4 µM. Also, the IC50 in data set [3] came out at 28.1 µM. Moreover, in data set [4], the IC50 was 7.13 µM. Moreover, the IC50 in data set [5] is 12.2 µM. Moreover, the IC50 in data set [6] was found to be 12.5 µM. In addition, in data set [7], the “caspase-3/7 activity (induction of the apoptotic pathway)” value is “caspase-3/7 activity was detected”.
